Among the data in patent US8956999B2, “Herbicides” (Syngenta Limited, priority 2007, dated 2015) are pest or weed control values, retold here.

Holding throughout (assay type): in vivo
The test system of experiment [1] is Amaranthus retoflexus (AMARE). Description: Example B post-emergence herbicidal test, glasshouse. The settings on record: Amaranthus retroflexus, 312 h, rate 250 g/ha, evaluated after 13 days, read-out: Post-Emergence Activity AMARE (100=total damage to plant; 0=no damage to plant). Here is the method:
(§1) Seeds of a variety of test species were sown in standard soil in pots. After cultivation for one day (pre-emergence) or after 8 days cultivation (post-emergence) under controlled conditions in a glasshouse (at 24/16° C., day/night; 14 hours light; 65% humidity), the plants were sprayed with an aqueous spray solution derived from the formulation of the technical active ingredient in acetone/water (50:50) solution containing 0.5% Tween 20 (polyoxyethelyene sorbitan monolaurate, CAS RN 9005-64-5). The test plants were then grown in a glasshouse under controlled conditions in a glasshouse (at 24/16° C., day/night; 14 hours light; 65% humidity) and watered twice daily. After 13 days for pre and post-emergence, the test was evaluated (100=total damage to plant; 0=no damage to plant). Test Plants: Alopecurus myosuroides (ALOMY), Avena fatua (AVEFA), Setaria faberi (SETFA), Echinochloa crus-galli (ECHCG), Solanum nigrum (SOLNI) and Amaranthus retoflexus (AMARE)

Experiment [2] deals with Setaria faberi (SETFA). The experiment is described as above. The settings on record: 312 h, rate 250 g/ha, evaluated after 13 days, read-out: Post-Emergence Activity SEFTA (100=total damage to plant; 0=no damage to plant). Here is the method: as §1
Experiment [3] deals with Echinochloa crus-galli (ECHCG). The experiment is described as above. The settings on record: 312 h, rate 250 g/ha, evaluated after 13 days, read-out: Post-Emergence Activity ECHGG (100=total damage to plant; 0=no damage to plant). On the procedure: as §1
In experiment [4] the test system is Avena fatua (AVEFA). The experiment is described as above. To be noted: 312 h, rate 250 g/ha, evaluated after 13 days, read-out: Post-Emergence Activity AVEFA (100=total damage to plant; 0=no damage to plant). On the procedure:
as §1

The test system of experiment [5] is Alopecurus myosuroides (ALOMY). The description is as above. To be noted: 312 h, rate 250 g/ha, evaluated after 13 days, read-out: Post-Emergence Activity ALOMY (100=total damage to plant; 0=no damage to plant). Here is the method: as §1
Experiment [6] relates to Amaranthus retoflexus (AMARE). Description: Example B pre-emergence herbicidal test, glasshouse. The settings on record: Amaranthus retroflexus, 312 h, rate 250 g/ha, evaluated after 13 days, 100=total damage to plant, 0=no damage to plant. On the procedure: as §1
The subject of experiment [7] is Setaria faberi (SETFA). Described as above. To be noted: Setaria faberi, 312 h, rate 250 g/ha, evaluated after 13 days, 100=total damage to plant, 0=no damage to plant, read-out: Pre-Emergence Activity SEFTA. Here is the method:
as §1

Experiment [8] concerns Echinochloa crus-galli (ECHCG). The description is as above. The settings on record: Echinochloa crus-galli, 312 h, rate 250 g/ha, evaluated after 13 days, 100=total damage to plant, 0=no damage to plant, read-out: Pre-Emergence Activity ECHGG. Here is the method:
as §1

Experiment [9] concerns Avena fatua (AVEFA). The experiment is described as above. The settings on record: 312 h, rate 250 g/ha, evaluated after 13 days, 100=total damage to plant, 0=no damage to plant. Here is the method: as §1
Experiment [10] deals with Alopecurus myosuroides (ALOMY). The experiment is described as above. To be noted: 312 h, rate 250 g/ha, evaluated after 13 days, 100=total damage to plant, 0=no damage to plant. Here is the method:
as §1

With `Cc1sc(-c2ccc(OC(F)F)cc2)nc1C1C(=O)C(C)(C)OC(C)(C)C1=O` [Compound T60], the pest or weed control at 250 g/ha in experiment [1] was 0%; in the experiment with Setaria faberi (SETFA) [2], 90%; in [3], 90%; in the experiment on Avena fatua (AVEFA) [4], 40%; in experiment [5], 50%; in experiment [6], 0%. Besides, the pest or weed control at 250 g/ha came to 70% in the experiment with Setaria faberi (SETFA) [7], 20% in experiment [8], 0% in the experiment with Avena fatua (AVEFA) [9] and 40% in experiment [10].

Consider `CC(=O)OC1=C(c2sc(-c3ccc(Cl)cc3)nc2C)C(=O)C(C)(C)OC1(C)C` [Compound P9], for which the pest or weed control at 250 g/ha in experiment [1] was 30%; with Setaria faberi (SETFA) [2] it was 80%; in [3] it was 100%; with Avena fatua (AVEFA) [4] it was 80%; in experiment [5], 90%; in experiment [6], 0%. Besides, the pest or weed control at 250 g/ha stood at 40% in the experiment on Setaria faberi (SETFA) [7], 50% in experiment [8], 0% in the experiment on Avena fatua (AVEFA) [9] and 20% in [10].

Turning to `CCc1sc(-c2ccc(Br)cc2C)nc1C1C(=O)C(C)(C)OC(C)(C)C1=O` [Compound T57], the pest or weed control at 250 g/ha in experiment [1] is 0%; in the experiment with Setaria faberi (SETFA) [2], 100%; in [3] it was 100%; with Avena fatua (AVEFA) [4], 90%; in [5] it was 100%; in experiment [6] it was 0%. Also, the pest or weed control at 250 g/ha with Setaria faberi (SETFA) [7] worked out at 90%; in [8] it was 50%; with Avena fatua (AVEFA) [9] it was 30%; in experiment [10] it was 20%.

As for `Cc1cnc(-c2ccc(Cl)cc2)nc1C1C(=O)C(C)(C)OC(C)(C)C1=O` [Compound T71, 4-[2-(4-chlorophenyl)-5-methylpyrimidin-4-yl]-2,2,6,6-tetramethylpyran-3,5-dione], the pest or weed control at 250 g/ha worked out at 0% in [1]; 90% with Setaria faberi (SETFA) [2]; 90% in experiment [3]; 40% in the experiment with Avena fatua (AVEFA) [4]; 20% in experiment [5]; 0% in experiment [6]. In addition, the pest or weed control at 250 g/ha in the experiment on Setaria faberi (SETFA) [7] came out at 50%; in experiment [8], 60%; with Avena fatua (AVEFA) [9], 0%; in [10], 20%.

Take `Cc1sc(-c2ccc([S+](C)[O-])cc2)nc1C1C(=O)C(C)(C)OC(C)(C)C1=O` (stereo not drawn) [Compound T68]: the pest or weed control at 250 g/ha in experiment [1] came out at 0%; in the experiment on Setaria faberi (SETFA) [2], 70%; in [3], 80%; in the experiment with Avena fatua (AVEFA) [4], 0%; in experiment [5], 0%; in [6], 0%. Also, the pest or weed control at 250 g/ha was 20% with Setaria faberi (SETFA) [7], 20% in [8], 0% with Avena fatua (AVEFA) [9] and 0% in [10].

`Cc1sc(-c2ccc(Br)cn2)nc1C1=C(OC(=O)C(C)(C)C)C(C)(C)OC(C)(C)C1=O` [Compound P5]: the pest or weed control at 250 g/ha (in experiment [1]; with Setaria faberi (SETFA) [2]; in experiment [3]; in the experiment with Avena fatua (AVEFA) [4]; in [5]; in experiment [6]) was 0% each time. Moreover, the pest or weed control at 250 g/ha (in the experiment on Setaria faberi (SETFA) [7]; in experiment [8]; with Avena fatua (AVEFA) [9]; in [10]) was 0% in each case.

Take `Cc1cc(-c2nc(C3C(=O)C(C)(C)C(=O)C(C)(C)C3=O)c(C)s2)ccc1Cl` [Compound T42]: the pest or weed control at 250 g/ha came to 0% in experiment [1]; 0% in the experiment with Setaria faberi (SETFA) [2]; 20% in experiment [3]; 0% in the experiment on Avena fatua (AVEFA) [4]; 0% in [5]; 40% in [6]. Besides, the pest or weed control at 250 g/ha came out at 0% in the experiment with Setaria faberi (SETFA) [7], 40% in [8], 0% with Avena fatua (AVEFA) [9] and 0% in [10].

`Cc1sc(-c2ccc(Cl)c(F)c2)nc1C1C(=O)C(C)(C)OC(C)(C)C1=O` [Compound T22]: the pest or weed control at 250 g/ha in experiment [1] worked out at 0%; with Setaria faberi (SETFA) [2], 100%; in [3], 100%; with Avena fatua (AVEFA) [4] it was 90%; in experiment [5] it was 100%; in [6] it was 0%. Further, the pest or weed control at 250 g/ha was 100% in the experiment with Setaria faberi (SETFA) [7], 90% in [8], 20% in the experiment with Avena fatua (AVEFA) [9] and 70% in [10].

Regarding `CCc1sc(-c2ccc(Cl)cc2C)nc1C1C(=O)C(C)(C)OC(C)(C)C1=O` [Compound T61], the pest or weed control at 250 g/ha in experiment [1] was found to be 0%; in the experiment on Setaria faberi (SETFA) [2] it was 90%; in [3] it was 100%; in the experiment on Avena fatua (AVEFA) [4], 70%; in experiment [5], 90%; in experiment [6] it was 0%. In addition, the pest or weed control at 250 g/ha was determined as 100% in the experiment with Setaria faberi (SETFA) [7], 100% in experiment [8], 0% in the experiment on Avena fatua (AVEFA) [9] and 80% in experiment [10].

Turning to `Cc1cc(Br)ccc1-c1nc(C2C(=O)C(C)(C)OC(C)(C)C2=O)c(C)s1` [Compound T58], the pest or weed control at 250 g/ha in experiment [1] came out at 0%; in the experiment on Setaria faberi (SETFA) [2] it was 100%; in experiment [3] it was 100%; in the experiment with Avena fatua (AVEFA) [4], 80%; in [5], 90%; in experiment [6], 20%. Also, the pest or weed control at 250 g/ha is 100% in the experiment with Setaria faberi (SETFA) [7], 50% in experiment [8], 0% with Avena fatua (AVEFA) [9] and 0% in experiment [10].

Regarding `Cc1sc(-c2ccc(Cl)s2)nc1C1C(=O)C(C)(C)OC(C)(C)C1=O` [Compound T55], the pest or weed control at 250 g/ha in [1] was 0%; with Setaria faberi (SETFA) [2], 60%; in experiment [3] it was 70%; in the experiment on Avena fatua (AVEFA) [4], 0%; in experiment [5] it was 40%; in experiment [6], 0%. The pest or weed control at 250 g/ha in the experiment on Setaria faberi (SETFA) [7] stood at 50%; in experiment [8], 20%; in the experiment with Avena fatua (AVEFA) [9], 0%; in experiment [10], 0%.

For the compound `Cc1sc(-c2ccc(Br)cn2)nc1C1C(=O)C(C)(C)OC(C)(C)C1=O` [Compound T56], the pest or weed control at 250 g/ha in experiment [1] was 0%; in the experiment on Setaria faberi (SETFA) [2], 90%; in experiment [3], 80%; with Avena fatua (AVEFA) [4], 20%; in experiment [5], 30%; in [6] it was 0%. Moreover, the pest or weed control at 250 g/ha turned out to be 20% with Setaria faberi (SETFA) [7], 10% in [8], 0% in the experiment on Avena fatua (AVEFA) [9] and 0% in experiment [10].
